Laboratory results published in patent publication US20250282764A1, “IMIDAZOLE HETEROCYCLE BASED COMPOUNDS AND METHODS OF TREATING CANCER” (King Abdulaziz University, priority 2024, published 2025).
“Also recorded” adds a separate entry of the source.

Key:
[1] = test system: MV4-11; test: Annexin V/7AAD apoptosis assay, MV4-11; type: cell-based, human; conditions: approximately 2×IC50, 48 h
Protocol: (§1) Apoptosis assay for leukemia cells was performed as follows. Cells were cultured in 6-well plates at a density of 3× 10^5 cells per well and treated with approximately 2×IC50 values of compound (Id) for 48 h. The experiments were performed in duplicates. To measure apoptosis, Annexin V APC and 7AAD staining (BD Biosciences, San Jose, CA, USA) was performed according to the manufacturer's recommendations, and 10,000 events were acquired using a FACSCanto flow cytometer (BD Biosciences, San Jose, CA, USA).

[2] = test system: HCT116; test: Annexin V apoptosis assay (flow cytometry), HCT116; type: cell-based, human; conditions: IC50 and 2×IC50, 48 h, vs basal conditions; dose dependent
Protocol: (§2) Apoptosis assay for colorectal carcinoma cell lines model was performed as follows. Cells were cultured in T25 culture flasks at a density of 3×10^5 cells for DLD-1, 4×10^5 cells for HCT116, and 5×10^5 cells for HT29 cells and treated with IC50 and 2×IC50 of compound (Id) for 48 h. The experiments were performed in triplicates. To measure apoptosis, an Annexin V APC staining assay (BD Biosciences, San Jose, CA, USA) was performed according to the manufacturer's recommendations, and 10,000 events were acquired using a FACSAria III flow cytometer (BD Biosciences, San Jose, CA, USA).

[3] = test system: DLD1; test: Annexin V apoptosis assay (flow cytometry), DLD1; type: cell-based, human; conditions: IC50 and 2×IC50, 48 h, vs basal conditions; dose dependent
Protocol: as §2

[4] = target: T1, CYP2C9 (Homo sapiens, UniProt P11712); test: CYP450 2C9 inhibition; type: in vitro ADME; conditions: recombinant CYP2C9 expressed in insect supersomes, probe 7-methoxy-4-(trifluoromethyl) coumarin, expressed enzyme, fluorescent substrate
T1 construct: purchased Fisher Scientific, Waltham, MA; host or cells: insect cells (supersomes)
T1 sequence (P11712 whole entry): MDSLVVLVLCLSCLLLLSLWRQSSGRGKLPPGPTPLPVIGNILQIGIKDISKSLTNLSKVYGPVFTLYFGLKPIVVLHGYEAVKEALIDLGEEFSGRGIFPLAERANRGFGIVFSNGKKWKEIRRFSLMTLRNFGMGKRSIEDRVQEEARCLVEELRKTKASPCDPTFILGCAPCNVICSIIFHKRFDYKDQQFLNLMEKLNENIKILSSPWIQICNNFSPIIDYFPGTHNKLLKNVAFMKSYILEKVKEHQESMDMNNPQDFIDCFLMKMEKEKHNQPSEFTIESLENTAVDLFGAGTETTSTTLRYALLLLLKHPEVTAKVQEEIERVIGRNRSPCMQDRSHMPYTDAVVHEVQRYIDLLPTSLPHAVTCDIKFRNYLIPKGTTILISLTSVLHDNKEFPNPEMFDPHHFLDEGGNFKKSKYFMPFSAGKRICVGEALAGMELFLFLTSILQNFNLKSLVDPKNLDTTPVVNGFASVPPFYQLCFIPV
Protocol: (§3) The compound (Id) was assessed for its ability to inhibit the three major human CYP450 enzymes, 3A4, 2D6 and 2C9. Assays were run in triplicate. Expressed enzymes in insect supersomes (Fisher Scientific, Waltham, MA) were used to minimize non-specific binding and membrane partitioning issues. The 3A4 assay uses testosterone as a substrate and analysis was performed by LC/MS/MS on a Waters Xevo TQ instrument as described above using positive electrospray ionization. Assay acceptance criteria was 20% for all standards and 25% for the LLOQ. The 2D6 and 2C9 assays use fluorescent substrates (3-[2-(N,N-diethylamino)ethyl]-7-methoxy-4-methylcoumarin for 2D6; 7-methoxy-4-(trifluoromethyl) coumarin for 2C9) and were analyzed on an Envision plate reader. GraphPad® Prism v 5.04 was used for nonlinear fitting of data to generate IC50 values.

[5] = target: T2, CYP3A4 (Homo sapiens, UniProt P08684); test: CYP450 3A4 inhibition; type: in vitro ADME; conditions: recombinant CYP3A4 expressed in insect supersomes, probe testosterone, expressed enzyme, testosterone substrate
T2 construct: purchased Fisher Scientific, Waltham, MA; host or cells: insect cells (supersomes)
T2 sequence (P08684 whole entry): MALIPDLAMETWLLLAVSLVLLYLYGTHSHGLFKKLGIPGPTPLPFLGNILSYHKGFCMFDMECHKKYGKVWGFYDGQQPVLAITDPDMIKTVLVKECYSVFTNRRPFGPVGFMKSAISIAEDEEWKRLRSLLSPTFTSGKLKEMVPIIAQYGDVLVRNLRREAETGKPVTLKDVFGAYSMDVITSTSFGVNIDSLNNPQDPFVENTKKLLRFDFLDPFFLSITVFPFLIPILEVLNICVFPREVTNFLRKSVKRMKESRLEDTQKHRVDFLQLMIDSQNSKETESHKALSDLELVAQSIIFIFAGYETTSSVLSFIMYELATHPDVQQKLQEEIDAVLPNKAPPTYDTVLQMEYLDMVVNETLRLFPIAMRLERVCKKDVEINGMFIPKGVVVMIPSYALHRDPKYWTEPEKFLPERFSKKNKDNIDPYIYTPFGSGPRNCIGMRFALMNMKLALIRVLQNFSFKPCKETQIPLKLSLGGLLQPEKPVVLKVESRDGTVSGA
Protocol: as §3

[6] = test system: KG1α; test: Annexin V/7AAD apoptosis assay, KG1α; type: cell-based, human; conditions: approximately 2×IC50, 48 h
Protocol: as §1

[7] = test system: Kasumi-1; test: Annexin V/7AAD apoptosis assay, Kasumi-1; type: cell-based, human; conditions: approximately 2×IC50, 48 h
Protocol: as §1

[8] = test system: HT29; test: Annexin V apoptosis assay (flow cytometry), HT29; type: cell-based, human; conditions: IC50 and 2×IC50, 48 h, vs basal conditions; dose dependent
Protocol: as §2

[9] = target: T3, CYP2D6 (Homo sapiens, UniProt P10635); test: CYP450 2D6 inhibition; type: in vitro ADME; conditions: recombinant CYP2D6 expressed in insect supersomes, probe 3-[2-(N,N-diethylamino)ethyl]-7-methoxy-4-methylcoumarin, expressed enzyme, fluorescent substrate
T3 construct: purchased Fisher Scientific, Waltham, MA; host or cells: insect cells (supersomes)
T3 sequence (P10635 whole entry): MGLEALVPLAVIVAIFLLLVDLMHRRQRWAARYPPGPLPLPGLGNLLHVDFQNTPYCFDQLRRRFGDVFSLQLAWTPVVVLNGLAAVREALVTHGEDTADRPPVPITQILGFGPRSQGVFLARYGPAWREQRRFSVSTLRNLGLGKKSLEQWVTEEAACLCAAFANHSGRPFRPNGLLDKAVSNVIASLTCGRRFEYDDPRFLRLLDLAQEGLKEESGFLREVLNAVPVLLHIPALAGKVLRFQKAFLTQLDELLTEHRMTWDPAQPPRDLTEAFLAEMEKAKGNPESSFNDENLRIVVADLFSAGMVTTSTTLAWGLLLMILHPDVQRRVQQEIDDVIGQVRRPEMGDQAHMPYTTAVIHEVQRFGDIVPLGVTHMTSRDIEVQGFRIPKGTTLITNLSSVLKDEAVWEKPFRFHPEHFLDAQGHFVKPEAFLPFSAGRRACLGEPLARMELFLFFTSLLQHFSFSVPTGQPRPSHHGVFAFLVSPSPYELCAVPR
Protocol: as §3

[10] = test system: NB4; test: Annexin V/7AAD apoptosis assay, NB4; type: cell-based, human; conditions: approximately 2×IC50, 48 h
Protocol: as §1

[11] = test system: HL60; test: Annexin V/7AAD apoptosis assay, HL60; type: cell-based, human; conditions: approximately 2×IC50, 48 h
Protocol: as §1

[12] = test system: MCF7 breast cancer; conditions: previous study (Khayat et al.); cited from earlier work
[13] = test system: HCT116 CRC cells; conditions: previous study (Khayat et al.); cited from earlier work
[14] = test system: CYP450 metabolizing enzymes (3A4, 2D6, and 2C9); conditions: previous study; cited from earlier work
[15] = test system: cell cycle; conditions: concentration of 1 μM; previous study; cited from earlier work
[16] = test system: NB4, HL60, and KG1a leukemia cell lines; conditions: previous study (Khayat et al.); range over three lines; cited from earlier work
[17] = test system: caspase-3; conditions: concentration of 1 μM; previous study; cited from earlier work
[18] = previous study profiling; cited from earlier work
[19] = test system: PC3 prostate cancer; conditions: previous study (Khayat et al.); cited from earlier work

| Structure (SMILES) | apoptosis in MV4-11 cells [1] | apoptosis in HCT116 cells [2] | apoptosis in DLD1 cells [3] | IC50 [4] [µM] | IC50 [5] [µM] | apoptosis in KG1α cells [6] | apoptosis in Kasumi-1 cells [7] | apoptosis in HT29 cells [8] | IC50 [9] [µM] | apoptosis in NB4 cells [10] | apoptosis in HL60 cells [11] | IC50 [12] [nM] | IC50 [13] [nM] | substrate for major CYP450 metabolizing enzymes (3A4, 2D6, and 2C9) [14] | effect on cell cycle [15] | IC50 [16] [nM] | apoptosis [17] | maximum aqueous solubility [18] [µM] | IC50 [19] [nM] |
| --- | --- | --- | --- | --- | --- | --- | --- | --- | --- | --- | --- | --- | --- | --- | --- | --- | --- | --- | --- |
| CC1=N/C(=C\c2ccc(C)o2)C(=O)N1c1ccc(CC(=O)NCc2ccccc2)cc1 [Compound (Id), 2-Methyl-4-(5-methyl-2-furyl)methylene-1-[4-(benzylaminocarbonylmethyl)phenyl]-5-oxo-1H-imidazole] | strong apoptosis | increased apoptosis | increased apoptosis | > 10 | > 10 | strong apoptosis | strong apoptosis; also recorded: very strong induction of apoptosis | increased apoptosis | > 10 | strong apoptosis | strong apoptosis | – | – | – | – | – | – | – | – |
| COc1ccc(/C=C2\N=C(C)N(c3ccc(CC(=O)NCc4ccccc4)cc3)C2=O)cc1 [KIM-161, reference compound] | – | – | – | – | – | – | – | – | – | – | – | 1140 | 294 | not a substrate | cell cycle arrest at pre-G and G2/M phases | 275 to 893 | promoted apoptosis through activation of caspase-3 | 19.9 | 2140 |
